Assay results published in publication PMC9129912, “Characterization of a New Multifunctional GH20 β-N-Acetylglucosaminidase From Chitinibacter sp. GC72 and Its Application in Converting Chitin Into N-Acetyl Glucosamine” (Frontiers in Microbiology, 2022).

Tested on: T1, NAGaseA
T1 construct: whole ORF, 844 residues (2535 bp), pET-28a(+) NdeI/XhoI, His6-tag kept, E. coli BL21(DE3), Ni-NTA purified, ~92 kDa (92,379 Da with His6-tag); cloning primers encode N-terminal MNKPAG and C-terminal SRVVAV
Assay: pNP release at […] nm, Lineweaver-Burk
Type: biochemical, Chitinibacter sp. GC72
Conditions: 50 mM PBS pH 6.5, 40°C, 10 min, 50-2,500 μM substrate

Compound `CC(=O)N[C@H]1[C@H](Oc2ccc([N+](=O)[O-])cc2)O[C@H](CO)[C@@H](O)[C@@H]1O` [pNP-GlcNAc] has a Km of 40 µM.
